From US6630140B1, “Compositions and methods for treatment of asthma” (The Children's Hospital of Philadelphia, priority 1998, dated 2003)
Where a name gives a salt, the structure may show the parent alone.

Legend:
[1] = system: tracheal smooth muscle (TSM) segments; assay: Relaxation dose-response to isoproterenol in TSM segments half-maximally contracted with ACh; format: cell-based, rabbit
Experimental: Rabbits were anesthetized with xylazine (10 mg/kg) and ketarnine (50 mg/kg) and were subsequently sacrificed using an overdose of pentobarbital (130 mg/kg). The tracheae of the rabbits were removed via open thoracotomy, the tracheae were cleared of loose connective tissue and were divided into eight ring segments of 6-8 mm length. Each segment referred to herein as a tracheal smooth muscle (TSM) segment was incubated for 24 hours at room temperature in either of the following: 1) human serum containing immunoglobulin (Ig) E at greater than 1000 IU/ml which was obtained from allergic patients having moderate to severe asthma and a 4-5/6+radioallergosorbent test (RAST) positive (having a specific IgE concentration of more than 17.5 Phadebas RAST units (PRU)/ml) to Dermatophagoides pteronyssimus, Dermatophagoides farinae and ragweed, and a positive skin test to these antigens; or 2) human serum obtained from non-atopic, non-asthmatic individuals having normal serum IgE levels (i.e., <70 IU/ml) and negative skin test reactivity to Dermatophagoides pteronyssimus, Dermatophagoides farinae and ragweed (Hakonarson et al. 1995, Am. J. Physiol. (Lung Cell Mol. Physiol.) 269:L645-L652).
In parallel experiments, TSM segments were incubated in either control serum or in atopic asthmatic serum that was: a) depleted of its immunoglobulin complexes by pretreatment with sepharose Staphylococcus protein A as described (Kessler, 1975, J. Immunol. 1 15:161.7-1624); b) co-incubated with an anti-CD23 (40 μg/ml) monoclonal blocking antibody; or c) with an anti-CD 16 (2 μg/ml) monoclonal blocking antibody. The TSM segments were treated with their respective anti-CD23 or anti-CD16 antibodies in Dulbecco's modified Eagle's medium for 1 hour prior to exposure to the atopic asthmatic serum.
In extended experiments, paired TSM segments were incubated for 24 hours in Dulbecco's modified Eagle's medium, as previously described (Hakonarson et al., 1996, J. Clin. Invest. 97:2593-2600), containing either: a) human IgE (final bath concentration (FBC): 15 μg/ml); or b) human IgE-goat-anti-human IgE immune complexes (FBC: 15:5 μg/ml of IgE/anti-IgE in the final organ bath mixture). Tissues incubated in medium alone served as controls. The concentrations of immune complexes used for the TSM incubations were based on the results obtained in pilot studies which were designed to determine the concentration and ratio of immune complexes that induced the greatest acute contractile effect in isolated sensitized TSM segments. The serum was aerated with a continuous supplemental O2 mixture (95% O2/5% CO2) during the incubation phase.
Following incubation of the tissue preparations obtained as described herein, each rabbit airway segment was suspended longitudinally between stainless steel triangular supports in siliconized Harvard 20 ml organ baths. […] Care was taken to place the membranous portion of the trachea between the supports in order to maximize the recorded tension generated by the contracting trachealis muscle. The tissues were bathed in modified Krebs-Ringer solution containing 125 mM NaCl, 14 mM NaHCO3, 4 mM KCl, 2.25 mM CaCl2.H2O, 1.46 MgSO4.H2O, 1.2 mM NaH2PO4.H2O and 11 mM glucose. The baths were aerated with 5% CO2 in oxygen, a pH of 7.35-7.40 was maintained, and the organ bath temperature was held at 37° C. Passive resting tension of each TSM segment was set at 2.0 g after each tissue had been passively stretched to a tension of 8 g in order to optimize the resting length of each segment as described (Tanaka et al., 1990, J. Clin. Invest. 85:345-350). The tissues were allowed to equilibrate in the organ baths for 45 minutes, at which time each tissue was primed with a 1 minute exposure to 10−4 M acetylcholine (ACh). […]

[2] = system: tracheal smooth muscle (TSM) segments; assay: Cholinergic contractility of isolated TSM segments to cumulative ACh (organ bath, isometric tension); format: cell-based, rabbit
Experimental: Rabbits were anesthetized with xylazine (10 mg/kg) and ketarnine (50 mg/kg) and were subsequently sacrificed using an overdose of pentobarbital (130 mg/kg). The tracheae of the rabbits were removed via open thoracotomy, the tracheae were cleared of loose connective tissue and were divided into eight ring segments of 6-8 mm length. […]
Following incubation of the tissue preparations obtained as described herein, each rabbit airway segment was suspended longitudinally between stainless steel triangular supports in siliconized Harvard 20 ml organ baths. […] Care was taken to place the membranous portion of the trachea between the supports in order to maximize the recorded tension generated by the contracting trachealis muscle. […]

[3] = TSM incubated with control serum

| Compound | Rmax (% maximal relaxation) for isoproterenol ([1]; IgE immune complex-treated TSM (15:5 μg/ml, 24 h)) | Rmax (% maximal relaxation) for isoproterenol ([1]; atopic asthmatic serum-sensitized TSM) | Rmax (% maximal relaxation) for isoproterenol ([1]; control TSM, vehicle alone 24 h) | Rmax (% maximal relaxation) for isoproterenol ([1]; control serum-treated TSM) | Effect on relaxation responsiveness to isoproterenol [1, 3] | Effect on the attenuated isoproterenol-induced relaxation responses ([1]; atopic asthmatic serum-sensitized TSM, tissue pretreated with antibody (anti-CD23 40 μg/ml, anti-CD16 2 μg/ml) or serum depleted with SpA) | Effect on contractility of the tissue to ACh [2, 3] | Effect on the induced augmented constrictor responses to ACh ([2]; atopic asthmatic serum-sensitized TSM, tissue pretreated with antibody (anti-CD23 40 μg/ml, anti-CD16 2 μg/ml) or serum pre-treated with SpA) |
| --- | --- | --- | --- | --- | --- | --- | --- | --- |
| CC(C)NCC(O)c1ccc(O)c(O)c1 (centres unmarked) [isoproterenol, isoproterenol hydrochloride] | 36.8±10.4% | 26.0±5.1% | 67.8±6.0% | 47.0±4.7% | – | – | – | – |
| SpA: Sepharose Staphylococcus protein A used to deplete the sensitizing serum of its immune complexes | – | – | – | – | neither anti-CD23 MAb nor pretreatment of the control serum with SpA affected | ablated | neither anti-CD23 MAb nor pretreatment of the control serum with SpA affected | largely prevented |
